Experimental data: US8410302B2, “Methoxyimino compounds and fungicide composition comprising same” (Kyung Nong Corporation, priority 2007, dated 2013)
Read-outs that look alike come from different tables or passages of the source.

Experiments:
Phytophthora infestans = assay: whole plant or invertebrate; assay type: in vivo; details: for TLB control value (C.V.): tomato late blight
Rhizoctonia solani AG-1 = assay: Fungicidal activity against rice sheath blight (RSB) disease, control value; details: for RSB control value (C.V.): rice sheath blight
[1] = system: Pyricularia oryzae Carvara KA301; assay: whole plant or invertebrate; assay type: in vivo; details: for pest or weed control at 10 ppm / pest or weed control at 50 ppm / pest or weed control at 2 ppm / pest or weed control at 100 ppm: Pyricularia oryzae, read-out: RCB control value (C.V.); for RCB control value (C.V.): rice blast
Botrytis cinerae = assay: Fungicidal activity against cucumber gray mold rot (CGM) disease, control value; assay type: in vivo; details: for CGM control value (C.V.) / pest or weed control at 100 ppm: 100 ppm
Erysiphae graminis = assay: Fungicidal activity against barley powdery mildew (BPM) disease, control value; assay type: in vivo
Puccinia recondita = assay: Fungicidal activity against wheat leaf rust (WLR) disease, control value; assay type: in vivo
[2] = Phytophthora infestans, in Solanum lycopersicum, read-out: TLB control value (C.V.)
[3] = Rhizoctonia solani, AG1, in Oryza sativa, read-out: RSB control value (C.V.)
[4] = Botrytis, read-out: CGM control value (C.V.)
[5] = 168 h, 2 ppm, read-out: BPM control value (C.V.)
[6] = 168 h, 10 ppm, read-out: BPM control value (C.V.)
[7] = 168 h, 50 ppm, read-out: BPM control value (C.V.)
[8] = Puccinia recondita, 2 ppm, read-out: WLR control value (C.V.)
[9] = Puccinia recondita, 10 ppm, read-out: WLR control value (C.V.)
[10] = Puccinia recondita, 50 ppm, read-out: WLR control value (C.V.)
[11] = 168 h, 100 ppm, read-out: BPM control value (C.V.)
[12] = Puccinia recondita, 100 ppm, read-out: WLR control value (C.V.)

Row | SMILES | pest or weed control at 2 ppm (Phytophthora infestans; [2]) | pest or weed control at 10 ppm (Phytophthora infestans; [2]) | pest or weed control at 50 ppm (Phytophthora infestans; [2]) | pest or weed control at 2 ppm (Rhizoctonia solani AG-1; [3]) | pest or weed control at 10 ppm (Rhizoctonia solani AG-1; [3]) | pest or weed control at 50 ppm (Rhizoctonia solani AG-1; [3]) | pest or weed control at 10 ppm [1] | pest or weed control at 50 ppm [1] | pest or weed control at 2 ppm (Erysiphae graminis; [5]) | pest or weed control at 10 ppm (Erysiphae graminis; [6]) | pest or weed control at 50 ppm (Erysiphae graminis; [7]) | pest or weed control at 2 ppm (Puccinia recondita; [8]) | pest or weed control at 10 ppm (Puccinia recondita; [9]) | pest or weed control at 50 ppm (Puccinia recondita; [10]) | TLB control value (C.V.) (Phytophthora infestans; 50 ppm) | TLB control value (C.V.) (Phytophthora infestans; 100 ppm) | pest or weed control at 100 ppm (Phytophthora infestans; [2]) | pest or weed control at 100 ppm (Rhizoctonia solani AG-1; [3]) | pest or weed control at 2 ppm [1] | pest or weed control at 100 ppm [1] | further results
1 | OC(c1ccc(Cl)cc1)(c1cncnc1)c1ccccc1Cl (stereo not drawn) [Fenarimol, reference compound] | 75% | 80% | 95% | 40% | 85% | 100% | 0% | 20% | 100% | 100% | 100% | 80% | 100% | 100% | – | – | – | – | – | – | pest or weed control at 0.4 ppm (Phytophthora infestans; [2]): 65%; pest or weed control at 0.4 ppm (Rhizoctonia solani AG-1; [3]): 30%; pest or weed control at 0.4 ppm (Botrytis cinerae; Botrytis, 0.4 ppm, read-out: CGM control value (C.V.)): 7%; pest or weed control at 2 ppm (Botrytis cinerae; Botrytis, 2 ppm, read-out: CGM control value (C.V.)): 7%; pest or weed control at 10 ppm (Botrytis cinerae; Botrytis, 10 ppm, read-out: CGM control value (C.V.)): 7%; pest or weed control at 50 ppm (Botrytis cinerae; [4]): 30%; pest or weed control at 0.4 ppm (Erysiphae graminis; 168 h, 0.4 ppm, read-out: BPM control value (C.V.)): 95%; pest or weed control at 0.4 ppm (Puccinia recondita; Puccinia recondita, 0.4 ppm, read-out: WLR control value (C.V.)): 15%
2 | CO/N=C(/C(=O)OC)c1ccccc1CON=C(C)c1ccc(C=C(Br)Br)cc1 [Example 25, methyl-(E)-2-[[[[[2-[4-(2,2-dibromovinyl)phenyl](1-methyl)methylidene]amino]oxy]methyl]phenyl]-2-methoxyiminoacetate] | – | – | – | – | – | – | – | – | – | – | – | – | – | – | 100% | 100% | – | – | – | – | TLB control value (C.V.) (Phytophthora infestans; 2 ppm): 93%; TLB control value (C.V.) (Phytophthora infestans; 10 ppm): 100%; RSB control value (C.V.) (Rhizoctonia solani AG-1; 2 ppm): 90%; RSB control value (C.V.) (Rhizoctonia solani AG-1; 10 ppm): 98%; RSB control value (C.V.) (Rhizoctonia solani AG-1; 50 ppm): 100%; RSB control value (C.V.) (Rhizoctonia solani AG-1; 100 ppm): 100%; RCB control value (C.V.) ([1]; 2 ppm): 100%; RCB control value (C.V.) ([1]; 10 ppm): 100%; RCB control value (C.V.) ([1]; 50 ppm): 100%; RCB control value (C.V.) ([1]; 100 ppm): 100%; CGM control value (C.V.) (Botrytis cinerae; cucumber gray mold rot): 35%; BPM control value (C.V.) (Erysiphae graminis; 2 ppm, barley powdery mildew): 100%; BPM control value (C.V.) (Erysiphae graminis; 10 ppm, barley powdery mildew): 100%; BPM control value (C.V.) (Erysiphae graminis; 50 ppm, barley powdery mildew): 100%; BPM control value (C.V.) (Erysiphae graminis; 100 ppm, barley powdery mildew): 100%; WLR control value (C.V.) (Puccinia recondita; 2 ppm, wheat leaf rust): 100%; WLR control value (C.V.) (Puccinia recondita; 10 ppm, wheat leaf rust): 100%; WLR control value (C.V.) (Puccinia recondita; 50 ppm, wheat leaf rust): 100%; WLR control value (C.V.) (Puccinia recondita; 100 ppm, wheat leaf rust): 100%
3 | CNC(=O)/C(=N/OC)c1ccccc1COc1ccc(F)cc1C=C(Br)Br [Example 80, (E)-2-(2-((2-(2,2-dibromovinyl)-4-fluorophenoxy)methyl)phenyl)-2-methoxyimino-N-methylacetamide] | 70% | 90% | 98% | 65% | 98% | 100% | 90% | 100% | 90% | 100% | 100% | 95% | 100% | 100% | – | – | 100% | 100% | 35% | 100% | pest or weed control at 100 ppm (Botrytis cinerae; [4]): 55%; pest or weed control at 100 ppm (Erysiphae graminis; [11]): 100%; pest or weed control at 100 ppm (Puccinia recondita; [12]): 100%
4 | CO/N=C(/C(=O)OC)c1ccccc1COc1ccc(C=C(Cl)Cl)c(Cl)c1 [Example 57, methyl-(E)-2-(2-((3-chloro-4-(2,2-dichlorovinyl)phenoxy)methyl)phenyl)-2-methoxyiminoacetate] | 99% | 100% | 100% | 90% | 100% | 100% | 100% | 100% | 100% | 100% | 100% | 95% | 100% | 100% | – | – | 100% | 100% | 90% | 100% | pest or weed control at 50 ppm (Botrytis cinerae; [4]): 20%; pest or weed control at 100 ppm (Botrytis cinerae; [4]): 75%; pest or weed control at 100 ppm (Erysiphae graminis; [11]): 100%; pest or weed control at 100 ppm (Puccinia recondita; [12]): 100%
5 | CNC(=O)/C(=N/OC)c1ccccc1CON=C(C)c1ccc(C=C(Cl)Br)cc1 [Example 38, (E)-2-[[[[[2-[4-(2-bromo-2-chlorovinyl)phenyl](1-methyl)methylidene]amino]oxy]methyl]phenyl]-2-methoxyimino-N-methylacetamide] | – | – | – | – | – | – | – | – | – | – | – | – | – | – | 100% | 100% | – | – | – | – | TLB control value (C.V.) (Phytophthora infestans; 2 ppm): 30%; TLB control value (C.V.) (Phytophthora infestans; 10 ppm): 80%; RSB control value (C.V.) (Rhizoctonia solani AG-1; 2 ppm): 80%; RSB control value (C.V.) (Rhizoctonia solani AG-1; 10 ppm): 95%; RSB control value (C.V.) (Rhizoctonia solani AG-1; 50 ppm): 98%; RSB control value (C.V.) (Rhizoctonia solani AG-1; 100 ppm): 100%; RCB control value (C.V.) ([1]; 2 ppm): 100%; RCB control value (C.V.) ([1]; 10 ppm): 100%; RCB control value (C.V.) ([1]; 50 ppm): 100%; RCB control value (C.V.) ([1]; 100 ppm): 100%; CGM control value (C.V.) (Botrytis cinerae; cucumber gray mold rot): 65%; BPM control value (C.V.) (Erysiphae graminis; 2 ppm, barley powdery mildew): 95%; BPM control value (C.V.) (Erysiphae graminis; 10 ppm, barley powdery mildew): 98%; BPM control value (C.V.) (Erysiphae graminis; 50 ppm, barley powdery mildew): 100%; BPM control value (C.V.) (Erysiphae graminis; 100 ppm, barley powdery mildew): 100%; WLR control value (C.V.) (Puccinia recondita; 2 ppm, wheat leaf rust): 100%; WLR control value (C.V.) (Puccinia recondita; 10 ppm, wheat leaf rust): 100%; WLR control value (C.V.) (Puccinia recondita; 50 ppm, wheat leaf rust): 100%; WLR control value (C.V.) (Puccinia recondita; 100 ppm, wheat leaf rust): 100%
6 | CO/N=C(/C(=O)OC)c1ccccc1COc1cccc(C=C(Cl)Br)c1 [Example 15, methyl-(2E)-2-(2-((3-(2-bromo-2-chlorovinyl)phenoxy)methyl)phenyl)-2-methoxyiminoacetate] | – | 10% | 90% | – | – | – | 100% | 100% | – | – | – | – | – | – | – | – | 100% | 10% | 70% | 100% | pest or weed control at 100 ppm (Botrytis cinerae; Botrytis, cucumber gray mold rot, read-out: CGM control value (C.V.)): 50%; pest or weed control at 2 ppm (Erysiphae graminis; Hordeum vulgare, 168 h, 2 ppm, barley powdery mildew, read-out: BPM control value (C.V.)): 15%; pest or weed control at 10 ppm (Erysiphae graminis; Hordeum vulgare, 168 h, 10 ppm, barley powdery mildew, read-out: BPM control value (C.V.)): 60%; pest or weed control at 50 ppm (Erysiphae graminis; Hordeum vulgare, 168 h, 50 ppm, barley powdery mildew, read-out: BPM control value (C.V.)): 93%; pest or weed control at 100 ppm (Erysiphae graminis; Hordeum vulgare, 168 h, 100 ppm, barley powdery mildew, read-out: BPM control value (C.V.)): 95%; pest or weed control at 2 ppm (Puccinia recondita; 2 ppm, wheat leaf rust, read-out: WLR control value (C.V.)): 100%; pest or weed control at 10 ppm (Puccinia recondita; 10 ppm, wheat leaf rust, read-out: WLR control value (C.V.)): 100%; pest or weed control at 50 ppm (Puccinia recondita; 50 ppm, wheat leaf rust, read-out: WLR control value (C.V.)): 100%; pest or weed control at 100 ppm (Puccinia recondita; 100 ppm, wheat leaf rust, read-out: WLR control value (C.V.)): 100%
7 | CNC(=O)/C(=N/OC)c1ccccc1COc1ccc(C=C(Cl)Cl)cc1Br [Example 54, (E)-2-(2-((2-bromo-4-(2,2-dichlorovinyl)phenoxy)methyl)phenyl)-2-methoxyimino-N-methylacetamide] | 93% | 95% | 100% | 90% | 98% | 100% | 90% | 100% | 100% | 100% | 100% | 100% | 100% | 100% | – | – | 100% | 100% | 30% | 100% | pest or weed control at 100 ppm (Botrytis cinerae; [4]): 65%; pest or weed control at 100 ppm (Erysiphae graminis; [11]): 100%; pest or weed control at 100 ppm (Puccinia recondita; [12]): 100%
8 | CNC(=O)/C(=N/OC)c1ccccc1COc1cccc(C=C(F)Cl)c1 [Example 12, (2E)-2-(2-((3-(2-chloro-2-difluorovinyl)phenoxy)methyl)phenyl)-2-methoxyimino-N-methylacetamide] | – | – | – | – | – | – | – | – | – | – | – | – | – | – | 55% | 93% | – | – | – | – | RSB control value (C.V.) (Rhizoctonia solani AG-1; 100 ppm): 15%; RCB control value (C.V.) ([1]; 50 ppm): 90%; RCB control value (C.V.) ([1]; 100 ppm): 97%; CGM control value (C.V.) (Botrytis cinerae; cucumber gray mold rot): 40%; BPM control value (C.V.) (Erysiphae graminis; 100 ppm, barley powdery mildew): 80%; WLR control value (C.V.) (Puccinia recondita; 100 ppm, wheat leaf rust): 82%
